Measured values from US9233946B2, “Sulfonamide compounds” (KANCERA AB, priority 2010, dated 2016).

System: PANC-1 cells
Test: Quantification of F-2,6-P2 in PANC-1 cells
Format: cell-based
Conditions: Homo sapiens; for IC50: PANC-1, read-out: IC50 based on quantification of F-2,6-P2; for inhibition at 12.5 µM: at 12.5 μM in PANC-1 cells
Excerpt: The relative kinase (formation) and phosphatase (degradation) activities of the bi-functional enzymes PFKFB3 and PFKFB4 control the intracellular levels of the regulator F-2,6-P2, which acts as an allosteric activator of glycolysis. The levels of F-2,6-P2 have been determined in three different cancer cell lines (MCF-7, PANC-1 and NUGC-3) using the van Shaftingen assay. The assay protocols described under “Methods for measurement of enzymatic activity of PFKFB3 and PFKFB4, Method A” have been adapted for the measurement of the inhibitory effect of compounds on the kinase activity of the various isoforms of the bifunctional enzyme (endogenously expressed) in the different cell lines. The modifications are described in the protocol below. All reagents were purchased from commercial sources or prepared inhouse.
Cell Line B (PANC-1, Human Pancreatic Carcinoma Cell Line)
• Cells: PANC-1 (ATCC-CRL-1469). Lot. no: 58564651. • Growth medium: Dulbecco's Modified Eagle's Medium, DMEM, ATCC-30-2002 10% FBS, Invitrogen, 10106-169
Cells were seeded at a concentration of 250 000 cells/mL in 100 μL growth medium (25 000 cells/well)
Starvation medium: DMEM/F12 without phenol red and glucose free, SVA, 991373 0.25% FBS, Invitrogen, 10106-169
Induction medium: DMEM/F12 without phenol red and glucose free, SVA, 991373 0.25% FBS, Invitrogen, 10106-169 (same as starvation medium)
Cells were seeded in 96-well Corning Costar tissue culture plates (CLS3595, Sigma-Aldrich) using the concentrations specified above for the three different cell lines A-C and incubated over night at 37° C. and 5% CO2. Row A was left empty. Next day the growth medium was discarded and replaced with 100 μL starvation medium. The plates were incubated for 18 h at 37° C. and 5% CO2. After 18 h of starvation the cells were induced with 100 μL compound or control solutions. Compounds were either tested in two concentrations (50 μM and 10 μM) or in dose response curves starting from 50 μM and the final DMSO concentration in assay plates was 0.5%. Also a dose response curve of a reference inhibitor was included in row H on each plate. All compounds were tested in duplicate plates. Compounds (in 96 well CLS 3365, Sigma-Aldrich) were serial diluted in DMSO from 10 mM compound DMSO stock solutions with Janus (automated liquid handling workstation from PerkinElmer). 5 μL were transferred to a Greiner deep well plate (736-0155, VWR) with 495 μL starvation medium. The final start concentration of compounds in the dilution plate was 100 μM, 1% DMSO. For compounds tested as single points, 10 mM compound solutions were diluted five fold in DMSO to 2 mM, followed by the transfer of 5 μL to separate dilution plates with 495 μL starvation medium. The final concentration of compounds in these dilution plates were 100 or 20 μM, respectively, and final concentration of DMSO was 1%. The plates were incubated at 37° C. and 5% CO2 for 1 h, followed by the addition of 10 μL 20 mM D-glucose in starvation medium. Controls, with and without 1 mM glucose, were included in row B. The final assay volume was 210 μL per well. After 2 h of incubation at 37° C. and 5% CO2, supernatants were discarded and the cells were lysed by the addition of 25 μL 250 mM NaOH. The plates were incubated at 37° C. and 5% CO2 for 5 min followed by an addition of 75 μL MilliQ dH2O. The supernatants were further diluted with 210 μL MilliQ dH2O to a final concentration of 20 mM NaOH. 200 μL were transferred to NUNC 96-well plates (7322661, VWR) and the plates were sealed and stored at −20° C. until analysis.
The amount of F-2,6-P2 was quantified based on the coupled enzymatic reaction described by Van Schaftingen. If necessary the samples were further diluted in 20 mM NaOH before quantification. Plates stored at −20° C. were thawed and the F-2,6-P2 quantification was initiated by transferring 40 μL from each well of the NUNC plate to the corresponding position in a trans-parent 96-well SpectraPlate-MB (6005649, PerkinElmer). […]

Row | SMILES | IC50 [µM] | inhibition at 12.5 µM [%]
1 | CCOC(=O)c1sc(NS(=O)(=O)c2cc(-c3cc(F)ccc3F)c(Cl)s2)nc1C [Example 127, Ethyl 2-({[5-chloro-4-(2,5-difluorophenyl)thiophen-2-yl]sulfonyl}amino)-4-methyl-1,3-thiazole-5-carboxylate] | – | > 50
2 | Cc1c(S(=O)(=O)Nc2cccc(C(=O)OCC3CCOC3)c2)sc2ccc(Cl)cc12 (stereo not drawn) [Example 117, Tetrahydrofuran-3-ylmethyl 3-{[(5-chloro-3-methyl-1-benzothiophen-2-yl)sulfonyl]amino}benzoate] | – | > 50
3 | Cc1c(S(=O)(=O)Nc2cccc(C(=O)OCc3ccccc3)c2)sc2ccc(Cl)cc12 [Example 111, Benzyl 3-{[(5-chloro-3-methyl-1-benzothiophen-2-yl)sulfonyl]amino}benzoate] | – | > 50
4 | CCOC(=O)c1cccc(NS(=O)(=O)c2sc3ccc(Cl)cc3c2C)c1 [Example 107, Ethyl 3-{[(5-chloro-3-methyl-1-benzothien-2-yl)sulfonyl]amino}benzoate] | – | > 50
5 | COC(=O)c1cccc(NS(=O)(=O)c2oc3ccc(C(C)C)cc3c2C)c1 [Example 123, Methyl 3-({[3-methyl-5-(1-methylethyl)-1-benzofuran-2-yl]sulfonyl}amino)benzoate] | – | > 50
6 | Cc1c(S(=O)(=O)Nc2cccc(C(=O)Oc3ccccc3)c2)sc2ccc(Cl)cc12 [Example 115, Phenyl 3-{[(5-chloro-3-methyl-1-benzothiophen-2-yl)sulfonyl]amino}benzoate] | – | > 50
7 | CCCCCOC(=O)c1cccc(NS(=O)(=O)c2sc3ccc(Cl)cc3c2C)c1 [Example 113, Pentyl 3-{[(5-chloro-3-methyl-1-benzothiophen-2-yl)sulfonyl]amino}benzoate] | – | > 50
8 | Cc1c(S(=O)(=O)Nc2cccc(C(=O)OCCn3cccc3)c2)sc2ccc(Cl)cc12 [Example 106, 2-(1H-Pyrrol-1-yl)ethyl 3-{[(5-chloro-3-methyl-1-benzothien-2-yl)sulfonyl]amino}benzoate] | – | > 50
9 | COCCOC(=O)c1cccc(NS(=O)(=O)c2sc3ccc(Cl)cc3c2C)c1 [Example 109, 2-Methoxyethyl 3-{[(5-chloro-3-methyl-1-benzothiophen-2-yl)sulfonyl]amino}benzoate] | – | > 50
10 | CCOC(=O)c1sc(NS(=O)(=O)c2sc3ccc(Cl)cc3c2C)nc1C [Example 126, Ethyl 2-{[(5-chloro-3-methyl-1-benzothiophen-2-yl)sulfonyl]amino}-4-methyl-1,3-thiazole-5-carboxylate] | – | > 50

More lines, main results first:

Row | IC50 [µM] | SMILES | inhibition at 12.5 µM [%]
11 | 4.3 | CCCOC(=O)c1cccc(NS(=O)(=O)c2sc3ccc(Cl)cc3c2C)c1 [Example 112, Propyl 3-{[(5-chloro-3-methyl-1-benzothien-2-yl)sulfonyl]amino}benzoate] | –
12 | 1.3 | Cc1c(S(=O)(=O)Nc2cccc(C(=O)OC3CCOC3)c2)sc2ccc(Cl)cc12 (stereo not drawn) [Example 116, Tetrahydrofuran-3-yl 3-{[(5-chloro-3-methyl-1-benzothiophen-2-yl)sulfonyl]amino}benzoate] | –
13 | 9 | COC(=O)c1cccc(NS(=O)(=O)c2sc3c(OC)cccc3c2C)c1 [Example 121, Methyl 3-{[(7-methoxy-3-methyl-1-benzothiophen-2-yl)sulfonyl]amino}benzoate] | –
14 | 3.1 | Cc1c(S(=O)(=O)Nc2cccc(C(=O)OC(C)C)c2)sc2ccc(Cl)cc12 [Example 108, Isopropyl 3-{[(5-chloro-3-methyl-1-benzothien-2-yl)sulfonyl]amino}benzoate] | –
15 | 0.5 | COC(=O)c1cccc(NS(=O)(=O)c2sc3ccc(C(C)C)cc3c2C)c1 [Example 92, Methyl 3-({[3-methyl-5-(1-methylethyl)-1-benzothiophen-2-yl]sulfonyl}amino)benzoate] | –
16 | 7 | COC(=O)Cn1nnc(-c2cccc(NS(=O)(=O)c3sc4ccc(C(C)C)cc4c3C)c2)n1 [Example 119, Methyl {5-[3-({[3-methyl-5-(1-methylethyl)-1-benzothiophen-2-yl]sulfonyl}amino)phenyl]-2H-tetrazol-2-yl}acetate] | –
17 | 8.7 | COC(=O)c1cccc(NS(=O)(=O)c2sc3c(Cl)cccc3c2C)c1 [Example 122, Methyl 3-{[(7-chloro-3-methyl-1-benzothiophen-2-yl)sulfonyl]amino}benzoate] | –
18 | 2.8 | Cc1c(S(=O)(=O)Nc2cccc(C(=O)OCCCN(C)C)c2)sc2ccc(Cl)cc12 [Example 118, 3-(Dimethylamino)propyl 3-{[(5-chloro-3-methyl-1-benzothiophen-2-yl)sulfonyl]amino}benzoate] | –
19 | 7.5 | Cc1c(S(=O)(=O)Nc2cccc(-c3nnn[nH]3)c2)sc2ccc(C(C)C)cc12 [Example 4, 5-Isopropyl-3-methyl-N-[3-(1H-tetrazol-5-yl)phenyl]benzothiophene-2-sulfonamide] | –
20 | 5.4 | COC(=O)c1cccc(NS(=O)(=O)c2ccc(-c3csc(C)n3)s2)c1 [Example 88, Methyl 3-({[5-(2-methyl-1,3-thiazol-4-yl)-2-thienyl]sulfonyl}amino)benzoate] | –
21 | 3.5 | COC(=O)c1cccc(NS(=O)(=O)c2sc3ccc(Br)cc3c2C)c1 [Example 120, Methyl 3-{[(5-bromo-3-methyl-1-benzothiophen-2-yl)sulfonyl]amino}benzoate] | –
